Measurements published in US10703764B2, “Benzopiperazine compositions as BET bromodomain inhibitors” (FORMA Therapeutics, Inc., priority 2013, dated 2020).

Legend:
BRD4 BD2 = molecular target: T1, BRD4 BD2 (Homo sapiens, UniProt O60885); experiment: AlphaScreen binding assay, BRD4 Bromodomain 2
T1 construct: made in house
Method in brief: (§1)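 Compound dilution series were mixed with His-tagged BRD4 bromodomain and biotinylated tetra-acetylated H4 (1-21) peptide at pH 7.3 (BD1 and peptide at 50 nM, BD2 and peptide at 100 nM). Donor and acceptor beads were then added, and plates were equilibrated at least 1 h before reading. IC50 values were fitted with a four-parameter logistic model.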

MV4-11 cells = experiment: Oncology cell growth assay (3-day proliferation, CellTiter-Glo); format: cell-based; settings: Homo sapiens, MV4-11, 72 h, AML cell line MV4-11, 72 hours, compounds grouped by IC50 range, read-out: MV4-11 IC50 (inhibition of proliferation, gIC50)
Method in brief: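 Luminescence from CellTiter-Glo served as the growth read-out after MV4-11 cells (3000/well) were cultured with compound for 72 hours. Final concentrations spanned 10 to 0.0045 μM in 3-fold steps. gIC50 values were derived by four-parameter logistic fitting relative to DMSO and cell-free controls.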

BRD4 BD1 = molecular target: T2, BRD4 BD1 (Homo sapiens, UniProt O60885); experiment: AlphaScreen binding assay, BRD4 Bromodomain 1
T2 construct: made in house
Method in brief: as §1

Row | Structure (SMILES) | IC50 (BRD4 BD2) [nM] | IC50 (MV4-11 cells) [nM] | IC50 (BRD4 BD1) [nM]
1 | COc1ccc(OC(=O)N2C[C@H](C)N(C(C)=O)c3ccc(-c4cnn(C5CC5)c4)cc32)c(F)c1 [Example I-523] | 50 to 500 | < 100 | 100 to 1000
2 | CC(=O)N1c2ccc(-c3cnn(Cc4noc(C)n4)c3)cc2N(C(=O)C2CC2)C[C@@H]1C [Example I-668] | 50 to 500 | 100 to 500 | 100 to 1000
3 | COC(=O)N1c2ccc(-c3cnn(CC(=O)N(C)C)c3)cc2N(C(=O)OC(C)C)C[C@@H]1C [Example I-320] | 50 to 500 | > 500 | 100 to 1000
4 | CC(=O)N1c2ccc(-c3cnn(C4CC4)c3)cc2N(c2nn(C)c3ncccc23)C[C@@H]1C [Example I-184, 1-[(2S)-6-(1-cyclopropyl-1H-pyrazol-4-yl)-2-methyl-4-{1-methyl-1H-pyrazolo[3,4-b]pyridin-3-yl}-1,2,3,4-tetrahydroquinoxalin-1-yl]ethan-1-one] | 50 to 500 | 100 to 500 | 100 to 1000
5 | CC(=O)N1c2ccc(-c3ccc4c(c3)N(S(C)(=O)=O)CCC4)cc2N(C(=O)OC(C)C)C[C@@H]1C [Example I-1185] | 50 to 500 | 100 to 500 | 100 to 1000
6 | CC(=O)N1c2ccc(-c3ccc(S(=O)(=O)N4CCOCC4)cc3)cc2N(C(=O)c2ccco2)C[C@@H]1C [Example I-275] | 50 to 500 | 100 to 500 | 1000 to 10000
7 | CCCS(=O)(=O)c1ccc(-c2ccc3c(c2)N(C(=O)OCC)C[C@H](C)N3C(C)=O)cc1 [Example I-1072] | 50 to 500 | 100 to 500 | 100 to 1000
8 | CC(C)OC(=O)N1C[C@H](C)N(C(=O)C2CC2)c2ccc(-c3cnn(CC4CC4)c3)cc21 [Example I-316] | 50 to 500 | 100 to 500 | 100 to 1000
9 | CCCS(=O)(=O)c1ccc(-c2ccc3c(c2)N(C(=O)OC2CCCCC2)C[C@H](C)N3C(C)=O)cc1 [Example I-1235] | 50 to 500 | 100 to 500 | 100 to 1000
10 | CC(=O)N1c2ccc(-c3cnn(CCN(C)C)c3)cc2N(C(=O)OC(C)C)C[C@@H]1C [Example I-129, (S)-isopropyl 4-acetyl-7-(1-(2-(dimethylamino)ethyl)-1H-pyrazol-4-yl)-3-methyl-3,4-dihydroquinoxaline-1(2H)-carboxylate] | 50 to 500 | 100 to 500 | 1000 to 10000
11 | CC(=O)N1c2ccc(-c3ccc(C(=O)N4CC[C@H](N)C4)cc3)cc2N(C(=O)OC(C)C)C[C@@H]1C [Example I-586] | 50 to 500 | 100 to 500 | 100 to 1000
12 | CC(=O)N1c2ccc(-c3cccc(S(=O)(=O)NCCO)c3)cc2N(C(=O)OC(C)C)C[C@@H]1C [Example I-1111] | 50 to 500 | 100 to 500 | 100 to 1000
13 | CC(=O)N1c2ccc(-c3ccc(S(=O)(=O)N4CCCC4)cc3)cc2N(C(=O)c2ccco2)C[C@@H]1C [Example I-286] | > 500 | < 100 | 100 to 1000
14 | CC(=O)N1c2ccc(-c3cnn(C4CCNCC4)c3)cc2N(c2nn(C)c3ccccc23)C[C@@H]1C [Example I-181, 1-[(2S)-2-methyl-4-(1-methyl-1H-indazol-3-yl)-6-[1-(piperidin-4-yl)-1H-pyrazol-4-yl]-1,2,3,4-tetrahydroquinoxalin-1-yl]ethan-1-one] | < 50 | < 100 | 100 to 1000
15 | CC(C)OC(=O)N1C[C@H](C)N(C(=O)C2CC2)c2ccc(-c3ccc(C(=O)N4CCN(S(C)(=O)=O)CC4)cc3)cc21 [Example I-572] | > 500 | 100 to 500 | 100 to 1000
16 | CC(=O)N1c2ccc(-c3ccc(N4CCCC4=O)cc3)cc2N(C(=O)C2CC2)C[C@@H]1C [Example I-1131] | 50 to 500 | 100 to 500 | 1000 to 10000
17 | CC(=O)N1c2ccc(-c3cnn(C4COC4)c3)cc2N(C(=O)C2CC2)C[C@@H]1C [Example I-10, (S)-1-(4-(cyclopropanecarbonyl)-2-methyl-6-(1-(oxetan-3-yl)-1H-pyrazol-4-yl)-3,4-dihydroquinoxalin-1(2H)-yl)ethanone] | 50 to 500 | 100 to 500 | 100 to 1000
18 | CNS(=O)(=O)c1ccc(-c2ccc3c(c2)N(C(=O)OC(C)C)C[C@H](C)N3C(C)=O)cc1 [Example I-1122] | 50 to 500 | 100 to 500 | 100 to 1000
19 | CCOC(=O)N1C[C@H](C)N(C(C)=O)c2ccc(-c3cc(Cl)cc(S(C)(=O)=O)c3)cc21 [Example I-1096] | > 500 | > 500 | 1000 to 10000

The next lines start with the values.

Row | IC50 (BRD4 BD2) [nM] | IC50 (MV4-11 cells) [nM] | IC50 (BRD4 BD1) [nM] | Structure (SMILES)
20 | 50 to 500 | 100 to 500 | 100 to 1000 | CC(C)OC(=O)N1CC(C)N(C(=O)C2CC2)c2ccc(-c3cnn(Cc4c[nH]cn4)c3)cc21 (stereo not drawn) [Example I-616]
21 | 50 to 500 | 100 to 500 | 1000 to 10000 | CNS(=O)(=O)c1cccc(-c2ccc3c(c2)N(C(=O)C2CC2)C[C@H](C)N3C(C)=O)c1 [Example I-1104]
22 | 50 to 500 | 100 to 500 | 100 to 1000 | CC(=O)N1c2ccc(-c3cnn(C4CC4)c3)cc2N(C(=O)Oc2ccc(F)cc2F)C[C@@H]1C [Example I-499]
23 | 50 to 500 | 100 to 500 | 100 to 1000 | CC(C)OC(=O)N1C[C@H](C)N(C(=O)C2CC2)c2ccc(-c3cnn(CC4(CO)COC4)c3)cc21 [Example I-615]
24 | 50 to 500 | > 500 | 100 to 1000 | CC(=O)N1c2ccc(-c3cnn(CCN4CCCS4(=O)=O)c3)cc2N(C(=O)C2CC2)C[C@@H]1C [Example I-659]
25 | 50 to 500 | 100 to 500 | 1000 to 10000 | CCS(=O)(=O)c1ccc(-c2ccc3c(c2)N(C(=O)C2CC2)C[C@H](C)N3C(C)=O)cc1 [Example I-1027]
26 | 50 to 500 | 100 to 500 | 100 to 1000 | COCCn1cc(-c2ccc3c(c2)N(C(=O)OC(C)C)C[C@H](C)N3C(=O)OC)cn1 [Example I-323]
27 | 50 to 500 | 100 to 500 | 100 to 1000 | C[C@H]1CN(C(=O)C2CC2)c2cc(-c3ccc(N4CCS(=O)(=O)CC4)cc3)ccc2N1C(=O)C1CC1 [Example I-436]
28 | 50 to 500 | > 500 | 100 to 1000 | CC(=O)N1c2ccc(-c3cnn(CC4(F)COC4)c3)cc2N(C(=O)C2CC2)C[C@@H]1C [Example I-649]
29 | 50 to 500 | 100 to 500 | 1000 to 10000 | CC(=O)N1c2ccc(-c3cccc(NS(=O)(=O)N(C)C)c3)cc2N(C(=O)C2CCC2)C[C@@H]1C [Example I-1144]
30 | 50 to 500 | 100 to 500 | 1000 to 10000 | CC(=O)N1c2ccc(-c3cccc(S(=O)(=O)N(C)C)c3)cc2N(C(=O)OC(C)C)C[C@@H]1C [Example I-1049]
31 | 50 to 500 | 100 to 500 | 1000 to 10000 | CC(=O)N1c2ccc(-c3ccc(S(=O)(=O)C4CC4)cc3)cc2N(C(=O)C2CC2)C[C@@H]1C [Example I-1031]
32 | 50 to 500 | 100 to 500 | 100 to 1000 | CC(=O)N1c2ccc(-c3cnn(CC4(C)COC4)c3)cc2N(C(=O)OC(C)C)C[C@@H]1C [Example I-605]
33 | 50 to 500 | 100 to 500 | 100 to 1000 | CC(=O)N1c2ccc(-c3ccc(S(=O)(=O)C4CC4)cc3)cc2N(C(=O)OC2CCOCC2)C[C@@H]1C [Example I-1216]
